Data on one compound can be found in patent US11241422B2, “Methods for treatment of Fabry disease” (Amicus Therapeutics, Inc., priority 2006, dated 2022).

Assay [1] concerns the target T1, mutant α-GAL (Homo sapiens, UniProt P06280, DEL358-358).
T1 construct: endogenous in cells; host or cells: T cell cultures established from blood of Fabry patients
T1 sequence (P06280 with tags, fused parts or gaps DEL358-358): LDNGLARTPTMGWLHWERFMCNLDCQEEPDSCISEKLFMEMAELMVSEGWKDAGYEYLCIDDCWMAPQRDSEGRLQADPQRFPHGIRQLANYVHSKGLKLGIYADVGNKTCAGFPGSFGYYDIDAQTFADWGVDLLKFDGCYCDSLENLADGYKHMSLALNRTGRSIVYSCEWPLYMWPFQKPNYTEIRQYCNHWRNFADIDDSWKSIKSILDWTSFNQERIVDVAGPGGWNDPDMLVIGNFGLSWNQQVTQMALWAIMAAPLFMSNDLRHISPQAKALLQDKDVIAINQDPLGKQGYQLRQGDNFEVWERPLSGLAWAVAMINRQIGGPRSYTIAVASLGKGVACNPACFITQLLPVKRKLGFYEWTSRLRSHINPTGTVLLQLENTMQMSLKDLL
In words: T cell-based α-GAL enhancement assay, T cells from Fabry patients cultured with DGJ. The note with it: Fabry patient T cells. Further details: key to Enhancement Group / Enhancement ratio: E: enhanceable;; I: enhanceable (intermediate);; NE: not enhanceable;. The method, then: (§1) 2. WBC Separation: • Patient blood was drawn into an 8 mL CPT tube, which has been stored at 18-25° C. • immediately after collecting blood, it was mixed by inverting the tube 8-10 times. • The tube was centrifuged at room temperature (18-25° C.) for 30 minutes at 1800× g using a tabletop centrifuge equipped with swinging buckets. Universal precautions for handling blood specimens were taken, including the use of a closed canister type bucket for centrifugation. • Following centrifugation, several layers of the blood composition become distinguishable which represented separation of the red blood cells from the plasma and white cells.
(§2) 3. Washing of WBC's • Half of the plasma layer was aspirated by vacuum and discarded without disturbing the white cell layer. All of the remaining fluid, including the cell layer, was transferred with a Pasteur pipette to a 15 mL conical screw-cap Falcon centrifuge tube. • PBS was added to bring the volume up to 14 mL and the tube was mixed by inversion. • The tube was centrifuged at room temperature for 20-30 minutes at 1300 rpm (approximately 320× g). • Immediately after centrifugation, as much supernatant as possible was aspirated by vacuum and discarded without disturbing the cell pellet.
(§3) 5. Optional: Freezing WBC Pellet • The cell pellet was mixed in the remaining liquid by tapping a finger against the bottom of the tube. • 0.5 to 1 mL of PBS was added to the re-suspended cells and one half of the pellet was transferred (using a sterile tip on a micropipette) to a labeled 1.8 mL cryovial. • The cryovial was centrifuged at room temperature for 5 minutes at 5000 rpm (approximately 2250 g) in a microcentrifuge. • All of the supernatant liquid was discarded using a Pasteur pipette without disturbing the cell pellet. • 0.5 to 1 ml of RPMI 1640 containing 10% FBS and 5% DMSO was then added to the tube and mixed a pipette and frozen overnight at −80 C prior to transferring to a liquid nitrogen cell storage freezer. B. Establishment of T-Cell Cultures from Blood Specimens • 1. The washed cells were re-suspended in 3.0 ml of RPMI 1640 medium with 10% Cosmic Calf Serum (CCS, Hyclone Laboratories, Logan, Utah), about 25 ng/ml IL-2 (PreProTECH, Rocky Hill, N.J.) and the manufacturer's recommended concentration of PHA (Life Technology, Gaithersburg, Md.). The cells were then transferred to an upright an upright […] culture flask and incubated for 3-4 days at 37° C., 5% CO2. • 2. The cell culture was diluted to 5 ml with growth medium (RPMI-1640, 10% FBS, 25 ng/ml IL-2). The cell concentration was then adjusted to about 5×10^5 cells/ml in the flask. • 3. The growth of the cells was monitored daily. Cells were maintained between 5×10^5 and 1.5×10^6 cells in an upright flask. […] Senescence of the culture will be apparent by a dramatic reduction in growth rate. Culture time may possibly be extended by re-stimulation with PHA. • 4. Optional-Freezing T-lymphocytes: T-lymphocytes may be frozen at 3×10^6 cells/vial using RPMI1640 medium containing 20% FCS and 7.5% DMSO. On day 5, 6, or 7 cryopreserve as many vials as possible at 3×10^6 cells/vial. This is sufficient to thaw 5 mLs of culture at 5×10^5 viable cells/ml. When establishing T-cell cultures, the following should be noted. • Fresh blood specimens should be collected in heparinized tubes (or tubes containing an appropriate anti-coagulant) and used the same day. ACD tubes should be used if specimens cannot be processed within 24 hours. (Clin Chem 1988 January; 34(1):110-3; Clin Diagn Lab Immunol. 1998 November; 5(6):804-7.). • Eight-10 mLs of blood is usually sufficient to establish 20 million cells by day 5. • T lymphocytes are the specific targets of the HIV virus. Use extreme care if the HIV status of the patient is unknown. • Each new lot of IL-2 should be tested to determine the optimal concentration.

The target in assay [2] is T2, mutant α-GAL (Homo sapiens, UniProt P06280, S201F).
T2 construct: was put into a fresh tube and used as the source of α-GAL; endogenous in cells; host or cells: T cell cultures established from blood of Fabry patients
T2 sequence (P06280 32-429 S201F): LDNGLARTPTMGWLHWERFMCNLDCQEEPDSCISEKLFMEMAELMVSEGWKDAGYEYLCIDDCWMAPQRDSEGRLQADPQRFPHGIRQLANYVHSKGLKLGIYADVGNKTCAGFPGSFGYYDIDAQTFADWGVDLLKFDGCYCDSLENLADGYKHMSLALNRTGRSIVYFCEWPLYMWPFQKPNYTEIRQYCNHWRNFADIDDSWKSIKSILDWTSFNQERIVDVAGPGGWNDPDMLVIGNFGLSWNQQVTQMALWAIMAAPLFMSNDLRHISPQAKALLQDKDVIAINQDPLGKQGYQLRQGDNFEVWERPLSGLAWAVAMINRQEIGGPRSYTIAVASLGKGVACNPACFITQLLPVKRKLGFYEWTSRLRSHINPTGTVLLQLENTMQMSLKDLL
The description is as above. The settings on record: Fabry patient T cells, mutation S201F. Further details: key to Enhancement Group / Enhancement ratio: E: enhanceable;; I: enhanceable (intermediate);; NE: not enhanceable;. On the procedure:
as §1, §2, §3

Take `OC[C@H]1NC[C@H](O)[C@@H](O)[C@H]1O` [DGJ, 1-deoxygalactonojirimycin]: the “Enhancement Group” value in assay [1] (mutation dE358) is listed as “NE”; in assay [2] it was “E”. Further, the “Activity (% Normal) (+DGJ)” value came to 4 % Normal in assay [1] (mutation dE358, 20 μM DGJ) and 82 % Normal in assay [2] (20 μM DGJ). The Enhancement ratio result in assay [1] (mutation dE358, +DGJ vs −DGJ) is reported as “NE”; in assay [2] (+DGJ vs −DGJ), 9.6.
